Laboratory results from patent US4835160A, “Derivatives of pyridoindole, having anti-tumor properties” (Sanofi, priority 1986, dated 1989).
Several values for one entry are separate records, joined by “and”; a condition that tells them apart may be missing. Identical values can stand only once. Counter-ions that a name gives are not always drawn. Like-named read-outs stand apart in the source and are kept apart here.

How the values were obtained:
[1] = test system: leukemia tumour line L 1210; assay: In vitro cytotoxic activity on leukemia tumour line L 1210; assay type: cell-based; details: L 1210, 48 hours contact, 37° C., read-out: I D 50 (concentration which inhibits the proliferation of the cells by 50%)
Method: (1) In vitro: ([…] et al., Chem. Biol. Interaction, 1979, 25, 45-58). The cytotoxic activity of the compounds of the invention has been evaluated by in vitro tests. These tests consist of adding increasing concentrations of the compound under test to a cellular culture of the leukemia tumour line L 1210 in an exponential phase of growth. The cellules are incubated at 37° C. in a CO2 incubator and counted every 24 hours. The calculation of the I D 50 (concentration of the product, expressed in 1^-1 micromole, which inhibits the proliferation of the cells by 50%) is made after 48 hours contact.

leukemia P388 = assay: Test for leukemia P388, IP/IP, D1; assay type: in vivo, CDF1 hybrid mice; details: 200 mg/kg IP
Method: (§1) The antitumour activity was tested in vivo on various tumours inoculated in various ways according to the following general protocol:
(§2) All the male or female mice are inoculated on day D0 with a known quantity of viable tumour cells for ascitic tumours or with a known tumour fragment for solid tumours.
(§3) They are then distributed into various groups. Each group, corresponding to the animals treated by the product under test, is made up of 10 mice. The product under test is dissolved in distilled water and it is administered n times (Dx-Dy), n, y, and x varying according to the protocol chosen, at the rate of 0.1 ml of solution per 10 g by weight of mice treated and at specific doses for each protocol.
(§4) The "negative control" group, corresponding to the animals which are not treated by the product, contains 2√N animals, N being equal to or greater than the total number of mice treated by the product in the same experiment.
(§5) Finally, the tests can also be carried out at the same time as the study of a group called "positive control", of ten animals, which is treated by a molecule, known for its antitumour activity and which can vary according to the protocol chosen, in the same conditions as the groups treated by the product under test.
(§6) The antitumour activity is evaluated, in the case of ascitic tumours, by considering the increase in the survival time of the animals treated in comparison to that of the animals in the "negative control" group, according to the formula: [formula]
(§7) Also, a product is considered as toxic at the dose studied when this T/C value is equal to or less than 85%. In addition, a product is also considered as toxic at the dose studied when the weight variation, expressed in grams and calculated by the formula: […]
(§8) The tests are carried out with CDF1 hybrid mice inoculated by intraperitoneal route with 10^6 leukemia cells from the P 388 line. The compound under test is administered for 5 successive days (D1-D5) by intraperitoneal route. The positive control for the test is 5-fluorouracile which is administered in the same conditions. The number of surviving animals is evaluated on day D30.
(b) Test for Leukemia P388, IP/IP, D1 (GERAN et al. Cancer chemother., 1972, 2, 07-57).
The test is carried out according to the preceding protocol, the compound under test being administered only on day D1.

leukemia P 388 = assay: Test of leukemia P 388; IP/IP, D1-5; assay type: in vivo, CDF1 hybrid mice; details: D1-D5; for Number of survivors: day D30; for T/C %: survival time
Method: (2) In vivo: (GERAN et al., Cancer Chemother., 1972, 2, 07-57):
as §1, §2, §3, §4, §5, §6
The criterion for activity varies according to the protocol.
as §7
"Average weight of the group measured on day 5--Average weight of the same group measured on day 1"
is equal to or less than 4 g.
(a) Test of lelukemia P 388; IP/IP, D1-5 (GERAN et al., Cancer Chemother., 1972, 2, 07-57).
as §8

leukemia L 1210 = assay: Test for leukemia L 1210, IP/IP, D1-D5; assay type: in vivo, CDF1 hybrid mice; details: 20 mg/kg IP
Method: as §1, §2, §3, §4, §5, §6, §7
(c) Test for leukemia L 1210, IP/IP, D-5 (GERAN et al., Cancer cheomother.,1972, 2, 07-57).
as §8, with “10^5” for “10^6”, “L 1210” for “P 388”, “5” for “5 successive”, “5-fluorouracile” for “5-fluorouracile which is”, “D60.” for “D30.”

melanoma B 16 = assay: Test for melanoma B 16; assay type: in vivo, BDF1 hybrid mice; details: 0.5 mg/kg IP, D1-D9
Method: as §1, §2, §3, §4, §5, §6, §7
(d) Test for melanoma B 16 (GERAN et al., Cancer Chemother., 1972, 2, 07-75).
The tests are carried out with BDF1 hybrid mice inoculated by intraperitoneal route with 0.5 ml of a homogenate of melanoma B 16 made up from 1 g of tumour in 10 ml of physiological serum. The compound under test is administered for 9 days (D1-D9) by intraperitoneal route. The positive control for the test is Cis-Platine administered in the same conditions. The number of surviving animals is evaluated on day D60.

reticulosarcoma M5-M5076 = assay: Test for reticulosarcoma M5-M5076; assay type: in vivo, BDF1 hybrid mice; details: 160 mg/kg IP, D1,5,9,13,17
Method: as §1, §2, §3, §4, §5, §6, §7
The tests are carried out with BDF1 hybrid mice inoculated by intraperitoneal route with 10^6 cells of the M5-M5076 line. The compound under test is administered 5 times successively in sequence (D1,5,9,13,17) by intraperitoneal route. The positive control for the test is cyclophosphamide administered in the same conditions. The number of surviving animals is evaluated on day D75.

SMILES: COc1ccc2c(c1)c1c(NCC(C)CN(C)C)ncc(C)c1n2C (racemic) [Derivative No. 20, 4,5-dimethyl-1-(3-dimethylamino-2-methylpropylamino)-8-methoxy-5pyrido[4,3-b]i dihydrochloride]
- IC50 ([1]; Mus musculus, L1210, 48 h): 1000 nM

SMILES: Cc1cnc(NCC(C)CN(C)C)c2c3cc(O)ccc3n(C)c12 (racemic) [Derivative No. 21, 4,5-dimethyl-1-(3-dimethylamino-2-methylpropylamino)-8-hydroxy-5H-pyrido[4,3-b]dihydrochloride]
- IC50 ([1]; Mus musculus, L1210, 48 h): 10 nM

SMILES: O=c1[nH]cc(F)c(=O)[nH]1 [5-Fluorouracile, 5-fluorouracile, reference compound]
- Median day of survival (leukemia P388): 19.0 days
- Variation by weight (leukemia P388): -3.2 g
- Number of survivors (leukemia P388; day D30): 0/10
- T/C % (leukemia P388; survival time): 173%
- Median day of survival (leukemia P 388; 20 mg/kg IP): 20.1 days and 18.9 days and 19 days and 17.75 days and 16.7 days and 18.8 days and 20 days and 17 days
- Number of survivors (leukemia P 388; 20 mg/kg IP): 0/10
- T/C % (leukemia P 388; 20 mg/kg IP): 166% and 164% and 168% and 160% and 147% and 173% and 171% and 154%
- Median day of survival (leukemia L 1210): 16.0 days
- Variation by weight (leukemia L 1210): -0.5 g
- Number of survivors (leukemia L 1210; day D60): 0/10
- T/C % (leukemia L 1210; survival time): 182%

SMILES: [NH2][Pt]([NH2])([Cl])[Cl] [Cis-Platine, reference compound]
- Median day of survival (melanoma B 16): 36 days and 30.0 days and 38.75 days
- Variation by weight (melanoma B 16): -0.6 g
- Number of survivors (melanoma B 16; day D60): 0/10
- T/C % (melanoma B 16; survival time): 131% and 126% and 141%

SMILES: O=P1(N(CCCl)CCCl)NCCCO1 (stereo not shown) [Cyclopnospnamide, cyclophosphamide, reference compound]
- Median day of survival (reticulosarcoma M5-M5076): > 60 days and 57.0 days
- Number of survivors (reticulosarcoma M5-M5076; day D75): 9/10 and 0/10
- T/C % (reticulosarcoma M5-M5076; survival time): > 239% and 219% and > 234%

SMILES: CCN(CC)CCCNc1ncc(C)c2[nH]c3ccccc3c12 [Derivative 1]
- IC50 ([1]; Mus musculus, L1210, 48 h): 200 nM

SMILES: Cc1cnc(NCCNCCO)c2c1[nH]c1ccccc12 [Derivative 3]
- IC50 ([1]; Mus musculus, L1210, 48 h): 1140 nM

SMILES: Cc1cnc(NCCCN(C)C)c2c1[nH]c1ccccc12 [Derivative No. 2, 1-(3-dimethylaminopropylamino)-4-methyl-5H-pyrido-[4,3-b]indole]
- IC50 ([1]; Mus musculus, L1210, 48 h): 160 nM

SMILES: CCNCCCNc1ncc(C)c2[nH]c3ccc(OC)cc3c12 [Derivative No. 5, 1-(3-ethylaminopropylamino)-8-methoxy-4-methyl-5H-pyrido[4,3-b]indole]
- IC50 ([1]; Mus musculus, L1210, 48 h): 1200 nM

SMILES: CCN(CC)CCCNc1ncc(C)c2c1c1cc(OC)ccc1n2C [Derivative No. 6, 1-(3-diethylaminopropylamino)-4,5-dimethyl-8-methoxy-5H-pyrido[4,3-b]indole]
- IC50 ([1]; Mus musculus, L1210, 48 h): 100 nM

SMILES: CCN(CC)CCCNc1ncc(C)c2[nH]c3ccc(O)cc3c12 [Derivative No. 8, 1-(diethylaminopropylamino)-8-hydroxy-4-methyl-5H-pyrido[4,3-b]indole]
- Median day of survival (leukemia P 388; 0.625 mg/kg IP): 15.1 days
- Variation by weight (leukemia P 388; 0.625 mg/kg IP): -0.5 g
- Number of survivors (leukemia P 388; 0.625 mg/kg IP): 0/10
- T/C % (leukemia P 388; 0.625 mg/kg IP): 136%
- Median day of survival (leukemia P 388; 1.25 mg/kg IP): 15.7 days
- Variation by weight (g) (leukemia P 388; 1.25 mg/kg IP): +0.6 g
- Number of survivors (leukemia P 388; 1.25 mg/kg IP): 0/10
- T/C % (leukemia P 388; 1.25 mg/kg IP): 141%
- Median day of survival (leukemia P 388; 2.5 mg/kg IP): 16.1 days
- Variation by weight (leukemia P 388; 2.5 mg/kg IP): -1.2 g
- Number of survivors (leukemia P 388; 2.5 mg/kg IP): 0/10
- T/C % (leukemia P 388; 2.5 mg/kg IP): 147%
- Median day of survival (leukemia P 388; 5 mg/kg IP): 19.4 days
- Variation by weight (leukemia P 388; 5 mg/kg IP): -0.8 g
- Number of survivors (leukemia P 388; 5 mg/kg IP): 0/10
- T/C % (leukemia P 388; 5 mg/kg IP): 175%
- Median day of survival (leukemia P 388; 10 mg/kg IP): 12.0 days
- Variation by weight (leukemia P 388; 10 mg/kg IP): -1.1 g
- Number of survivors (leukemia P 388; 10 mg/kg IP): 0/10
- T/C % (leukemia P 388; 10 mg/kg IP): 108%
- IC50 [1]: 80 nM

SMILES: COc1ccc2c(c1)c1c(NCCCN(C)C)ncc(C)c1n2C.Cl.Cl [Derivative No. 13, 4,5-dimethyl-1-(3-dimethylaminopropylamino)-8-methoxy-5H-pyrido[4,3-b]indole dihydrochloride]
- Median day of survival (leukemia P 388; 5 mg/kg IP): 14.1 days
- Variation by weight (g) (leukemia P 388; 5 mg/kg IP): +1.0 g
- Number of survivors (leukemia P 388; 5 mg/kg IP): 0/10
- T/C % (leukemia P 388; 5 mg/kg IP): 134%
- Median day of survival (leukemia P 388; 10 mg/kg IP): 16.8 days
- Variation by weight (g) (leukemia P 388; 10 mg/kg IP): +1.2 g
- Number of survivors (leukemia P 388; 10 mg/kg IP): 0/10
- T/C % (leukemia P 388; 10 mg/kg IP): 160%
- Median day of survival (leukemia P 388; 20 mg/kg IP): 15.8 days
- Variation by weight (g) (leukemia P 388; 20 mg/kg IP): +0.4 g
- Number of survivors (leukemia P 388; 20 mg/kg IP): 0/10
- T/C % (leukemia P 388; 20 mg/kg IP): 150%
- Median day of survival (leukemia P 388; 40 mg/kg IP): 8.4 days
- Variation by weight (leukemia P 388; 40 mg/kg IP): -2.5 g
- Number of survivors (leukemia P 388; 40 mg/kg IP): 0/10
- T/C % (leukemia P 388; 40 mg/kg IP): 80%
- IC50 ([1]; Mus musculus, L1210, 48 h): 130 nM

SMILES: CCN(CC)CCCNc1ncc(C)c2c1c1ccccc1n2C [Derivative No. 16, 1-(3-diethylaminopropylamino)-4,5-dimethyl-5H-pyrido[4,3-b]indole dihydrochloride]
- IC50 ([1]; Mus musculus, L1210, 48 h): 720 nM

SMILES: CCN(CC)CCNc1ncc(C)c2c1c1cc(OC)ccc1n2C [Derivative No. 18, 1-(2-diethylaminoethylamino)-4,5-dimethyl-8-methoxy-5H-pyrido[4,3-b]indole dihydrochloride]
- IC50 ([1]; Mus musculus, L1210, 48 h): 1200 nM

SMILES: CCN(CC)CCCCNc1ncc(C)c2c1c1cc(OC)ccc1n2C [Derivative No. 22, 1-(4-diethylaminobutylamino)-4,5-dimethyl-8-methoxy-5H-pyrido[4,3-b]indoledihydrochloride]
- IC50 ([1]; Mus musculus, L1210, 48 h): 1300 nM

SMILES: CCN(CC)CCCCNc1ncc(C)c2c1c1cc(O)ccc1n2C [Derivative No. 23, 1-(4-diethylaminobutylamino)-4,5-dimethyl-8-hydroxy-5H-pyrido[4,3-b]indoledihydrochloride]
- IC50 ([1]; Mus musculus, L1210, 48 h): 310 nM
